Test results: patent EP0309120A2, “Atrial hypotensive peptide” (QUEEN'S UNIVERSITY AT KINGSTON, priority 1987, dated 1989)
Ends that are not written are not given here.

Key:
[1] = system: antiserum to iso-rANP(1-20) (P2A); experiment: Radioimmunoassay (RIA) with anti-P2A antiserum and 125I-P2A-Y tracer; assay type: binding, New Zealand white rabbits; details: antiserum used for the RIA
Excerpt: The procedure was repeated to produce the same 20 amino acid residue fragment with a tyrosine residue attached to the N-terminal serine. The 20-residue peptide (P2A) was mixed with Freund's complete adjuvant and injected subcutaneously into New Zealand white rabbits. After boosting at 5 weeks after the initial injection the rabbits were bled 1 week later. […] Tyrosinated P2A (P2A-Y) was iodinated using the chloramine T method and the iodinated tracer was purified by HPLC on a Waters µBondapak C₁₈ column. For radioimmunossay (RIA) the buffer contained 0.1M NaHPO₄ buffer, pH 7.4, 0.05M NaCl, 0.1% BSA and 0.02% […]. The RIA incubation mixture contained 3-100 pg of P2A in 100 µ l of buffer, 100 µl of diluted antiserum and 100 µl of ¹²⁵I-P2A-Y (approx. 8000 cpm). After incubation overnight at 4°C bound and free iodinated peptide were separated by second antibody precipitation using goat anti-rabbit - globulin. The sensitivity of the assay was 2-3 pg/tube with 50% displacement at 25-30 pg/tube.
The RIA was then used to monitor the purification of the peptide de novo from atrial extracts using gel-filtration and reverse-phase HPLC. The procedure used was essentially the same as the one briefly described above for the purification of ANP, except that the initial extraction and the gel-filtration stages were done in the presence of several protease inhibitors.

[2] = system: bioassay rats; experiment: Bolus injection into anesthetized bioassay rats: urinary and cardiovascular responses; assay type: in vivo, male Sprague-Dawley rats
Procedure: Experiments were performed using male Sprague-Dawley rats, ranging in weight from 270-362 g. The rats were anesthetized by an intraperitoneal injection of sodium pentobarbital (70 mg.kg-1; MTC Pharmaceuticals, Hamilton, Ont.). Additional small amounts of anesthetic were administered as required in the course of the experiment. […] After installing a tracheal cannula, a femoral vein was cannulated and a priming infusion of saline (0.9% NaCl) was administered over a 20 min period (1.1 ml); this was followed by a maintenance saline infusion of 1.2 ml.h-1. The femoral artery was then cannulated for blood pressure measurement (Statham pressure transducer, model P23Db). A catheter was also advanced via the right external jugular vein towards the right heart for bolus injections of vehicle, ANF or the atrial peptide of the present invention (AHP). After tying off the penis, the bladder was cannulated for urine collection. Rates were not used or experiments aborted if the urine became bloody. The EKG was recorded for determination of heart rate.
Urine was collected in preweighed vials and volume calculated by weighing. The time for sequential urine collections was 5 min or, increments of 4 min until there was enough urine volume for electrolyte determinations (0.25 ml or 16 drops). Rat kidneys were removed at the termination of the experiments so that urinary excretion measurements could be normalized for total kidney weight. Measurements of NA+ and K+ were obtained using ion specific electrodes and Cl- was obtained by coulometric titration.
Zero time was established by 40-60 mins from the beginning the priming saline infusion. The control measurements were carried out over 20 mins or, until there was sufficient urine collection for electrolyte determinations. A bolus injection of vehicle, rANP(99-126) or iso-rANP(1-46) or iso-rANP(17-46) was then administered into the jugular vein catheter and the catheter immediately cleared of remaining injectate by a secondary bolus of 0.2 ml saline. The rANP(99-126) was obtained from Armand-Frappier, Montreal. Cardiovascular measurements were analyzed at 5 min intervals during control and at 1, 5, 10, 15 and 20 mins following administration of injectate. […] Thus, residues 17-46 of the native peptide represent a functional, as well as structural, homologue of both ANP and BNP. Moreover, it would appear that residues 1-20 of iso-rANP(1-46) are not required for biological activity. […] It required twice the dose of iso-rANP(17-46) (1.5 nanomol) to produce equivalent average decreases in mean arterial blood pressure and heart rate as rANP(99-126) (0.7 nanomol). […] Variability of response of assay rats to injected peptides is evident from the rather larger variances (SEM).

[3] = system: Aortic rings (thoracic aortae); experiment: Vasorelaxant activity on phenylephrine-contracted aortic rings; design: species or system New Zealand White rabbits
Procedure: Aortic rings (3-4mm) were cut from the thoracic aortae of New Zealand White rabbits. The rings were suspended in a 10 ml tissue bath containing Kreb's Ringer Solution, pH 7.4 at 37°C. The rings were maintained at about 70% of maximal contraction with phenylephrine in doses ranging from 1 x 10⁻⁶ to 5 x 10⁻⁸M. Vasorelaxant activity or peptides was tested by adding various concentrations of peptide to the bath.

| Substance | cross-reaction with antiserum [1] | effect in increasing urinary volume as well as Na+, K+ and Cl- excretion ([2]; 3.0 nanomol, four-fold larger dose than rANP(99-126), compared with rANP(99-126)) | potency compared with rANP(99-126) ([2]; as shown in Table 1, result in words) | dose to produce equivalent average decreases in mean arterial blood pressure and heart rate ([2]; bolus into jugular vein catheter) | urinary responses ([2]; dose 0.9 nmol) | additional effect on cardiovascular responses (mean arterial blood pressure, heart rate) ([2]; dose increased to 3.0 nanomol) | diuretic, natriuretic, hypotensive and bradycardic responses ([2]; injected into bioassay rats, result in words) | smooth muscle vaso-relaxant activity ([3]; rabbit aortic rings at about 70% of maximal contraction with phenylephrine, result in words) | higher dose required to produce the same relaxation obtained by 50 ng of rANP(99-126) ([3]; rabbit aortic rings, relative to 50 ng of rANP(99-126)) | potency compared with ANP(99-126) ([3]; rabbit aortic rings, result in words) |
| --- | --- | --- | --- | --- | --- | --- | --- | --- | --- | --- |
| ANP: atrial natriuretic peptide, length not specified at this place | did not cross-react | – | – | – | – | – | – | – | – | – |
| MAHSSSCFGEKIDRIGAVSRLGCDILLIAQ (cysteine pairing not given here) [iso-rANP(17-46), chemically synthesized peptide corresponding to residues 17-46 of iso-rANP(1-46)] | – | somewhat lesser effect | somewhat less than rANP(99-126) | 1.5 nmol | only a small effect in most rats | no additional effect | elicited diuretic, natriuretic, hypotensive and bradycardic responses qualitatively similar to both the native peptide and rANP | showed smooth muscle vaso-relaxant activity | 20 fold | less potent |
